Assay results as given in publication PMC10611619, “[^99mTc]Tc-PentixaTec: development, extensive pre-clinical evaluation, and first human experience” (European Journal of Nuclear Medicine and Molecular Imaging, 2023).
Like-named read-outs stand apart in the source and are kept apart here. Each block holds one compound with its values, some of them ahead of it. Where a SMILES comes first, the peptide text is derived from it. Bridges are numbered along the chain shown (N, C = ends). Roman numbers before positions name the chains, in order. Side-chain parts run from the residue outwards. [ ]: non-standard residue; d: D form. The star is where a group is joined. DOTA = O=C(O)CN1CCN(CC(=O)O)CCN(CC(=O)*)CCN(CC(=O)O)CC1; dTyr(3-I) = N[C@H](Cc1ccc(O)c(I)c1)C(=O)O; 2Nal = N[C@@H](Cc1ccc2ccccc2c1)C(=O)O; dNMeOrn = CN[C@H](CCCN)C(=O)O; HYNIC = NNc1ccc(C(=O)*)cn1; 4Amb = NCc1ccc(C(=O)O)cc1; Mercaptoacetyl = O=C(CS)*; 4Abz = Nc1ccc(C(=O)O)cc1; dDap = NC[C@@H](N)C(=O)O

Tests used:
[1] = Lipophilicity (logD), shake-flask n-octanol/PBS pH 7.4; assay type: physicochemical
Procedure: The lipophilicity (logD, partition coefficient between n-octanol and PBS, pH 7.4) of all ^99mTc-labeled compounds in this study was determined using a modified shake-flask method as described.

[2] = in vivo; cited from earlier work
[3] = test system: hCXCR4 expressing Chem-1 cells; experiment: Dual tracer internalization studies with [^125I]FC-131 as internal reference; assay type: cell-based, human; conditions: for internalization in % of total activity / Internalization (% of reference): 90 min; for Internalization (% of reference): normalized to specific internalization of [^125I]FC-131, Chem-1 cells; for internalization area under the curve (AUC): internalization kinetics, Fig. 1
Procedure: Dual tracer internalization studies using [^125I]FC-131 as internal reference were conducted in hCXCR4 expressing Chem-1 cells in analogy to a previously established protocol. A detailed assay protocol is provided in the supplementary material section.
On the day prior to the experiment, Chem-1 cells were seeded in 24-well-plates at a density of app. 1·10^5 cells per well. On the day of the experiment, the culture medium was removed and the cells were washed once with 250 µL of unsupplemented medium before being left to equilibrate in 200 µL of assay medium (DMEM/F-12 containing 5% BSA) at 37°C for a minimum of 15 min before the experiment. Cells were then coincubated with the respective ^99mTc-labeled compound of interest (0.2 nM) and [^125I]FC-131 (0.2 nM) in the absence (total binding) or presence (non-specific binding) of 100 µM AMD3100 for different time points up to 120 min at 37°C (n=3 wells, respectively, per time point). Incubation was terminated by placing the plate on an ice pack for app. 1 min and by subsequent removal of the incubation medium. Cells were thoroughly rinsed with 250 µL of HBSS. After washing twice with 250 µL of ice cold acid wash buffer (0.02 M NaOAc buffered with AcOH to pH = 5), cells were lysed with 250 µL of 1 N NaOH. The lysate was tranferred to vials and combined with 250 µL of HBSS used for rinsing the wells. Quantification of the amount of free, acid-releasable and internalized ^99mTc- and ^125I-activity was performed using dual isotope protocol on a WIZARD^2® 2480 automatic γ-Counter (Perkin Elmer, Waltham MA, USA).
All data were corrected for non-specific internalization in the presence of […] AMD3100 and were then normalized to the specific internalization observed of the standard radioligand [^125I]FC-131.

[4] = Biodistribution in Jurkat xenograft-bearing mice, 1 h p.i.; assay type: in vivo; conditions: female, CB17/SCID, mouse, iv, total radioactivity, n = 5, mean ± SD
Procedure: (§1) Female CB17/SCID mice bearing subcutaneous Jurkat human T cell lymphoma xenografts (for more detailed information, see supplemental material) were injected intravenously with the respective ^99mTc-labeled tracer (5–20 MBq, 0.1–0.2 nmol/mouse) under isofluorane anesthesia and were sacrificed at 1 h post-injection (p.i.). The organs of interest were dissected, and the activity concentration in weighed tissue samples was quantified using a WIZARD^2® 2480 automatic γ-Counter from Perkin Elmer (Waltham MA, USA). Biodistribution data are given in %iD/g and represent means ± SD (groups of n = 4–5 animals). Statistical analysis (t-test) was performed using GraphPad Prism.
(§2) To establish tumor xenografts, Jurkat cells (2 – 3x10^7 cells) were suspended in a mixture of RPMI 1640 medium and Matrigel (1/1; v/v) (BD Biosciences, Heidelberg, Germany), and injected subcutaneously into the right shoulder of 6–10 weeks old CB17-SCID mice from either Charles River GmbH (Sulzfeld, Germany) or the in-house mouse breeding facility. As soon as tumors had grown to a diameter of 5–8 mm (4 – 10 weeks after inoculation), mice were used for the experiments.

[5] = test system: Jurkat xenograft bearing CB17/SCID mice; experiment: as above; assay type: in vivo; conditions: Jurkat xenograft, n = 5, mean ± SD
Procedure: as §1, §2

mCXCR4 = conditions: Eµ-myc 1080 mouse lymphoma cells; cited from earlier work
human CXCR4 (hCXCR4) = human CXCR4 (hCXCR4) (Homo sapiens, UniProt P61073); experiment: Competitive binding to hCXCR4 (IC50), Jurkat cells, [^125I]FC-131 as radioligand; conditions: [^125I]FC-131 radioligand
Chain of human CXCR4 (hCXCR4) (P61073 whole entry): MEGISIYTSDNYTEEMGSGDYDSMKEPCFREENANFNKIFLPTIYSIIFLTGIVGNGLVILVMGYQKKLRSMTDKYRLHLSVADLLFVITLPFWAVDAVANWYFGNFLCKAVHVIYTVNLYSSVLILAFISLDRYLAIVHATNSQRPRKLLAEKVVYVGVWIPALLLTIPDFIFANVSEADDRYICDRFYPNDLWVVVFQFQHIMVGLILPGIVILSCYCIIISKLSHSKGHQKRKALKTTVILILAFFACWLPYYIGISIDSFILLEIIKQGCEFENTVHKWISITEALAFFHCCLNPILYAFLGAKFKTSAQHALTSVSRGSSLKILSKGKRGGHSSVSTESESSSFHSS

- Lipophilicity (logD) [1]: − 1.84
SMILES: CN1C(=O)[C@@H](Cc2ccc(O)cc2)NC(=O)CNC(=O)[C@H](Cc2ccc3ccccc3c2)NC(=O)[C@H](CCCNC(=N)N)NC(=O)[C@H]1CCCNC(=O)c1ccc(NN)nc1 [[^99mTc]Tc-HYNIC-CPCR4, cyclo(D-Tyr-N-Me-D-Orn([^99mTc]Tc-HYNIC)-Arg-2-Nal-G), metal not drawn] (cyclo([2Nal]G[dY][dNMeOrn](HYNIC)R))
- effective dose per unit of administered activity [2]: 3.92E − 03 mSv/MBq

- tissue uptake at 1 h ([4]; blood, read-out: Biodistribution Blood): 1.6 ± 0.6 %ID/g
- tissue uptake at 1 h ([4]; femur, read-out: Biodistribution Femur): 0.8 ± 0.4 %ID/g
- tissue uptake at 1 h ([4]; heart, read-out: Biodistribution Heart): 0.8 ± 0.3 %ID/g
- tissue uptake at 1 h ([4]; intestines, read-out: Biodistribution Intestines): 0.6 ± 0.1 %ID/g
- tissue uptake at 1 h ([4]; kidneys, read-out: Biodistribution Kidneys): 29.5 ± 4.4 %ID/g
- tissue uptake at 1 h ([4]; liver, read-out: Biodistribution Liver): 2.6 ± 0.2 %ID/g
- tissue uptake at 1 h ([4]; lung, read-out: Biodistribution Lung): 1.9 ± 0.4 %ID/g
- tissue uptake at 1 h ([4]; muscle, read-out: Biodistribution Muscle): 1.5 ± 1.1 %ID/g
- tissue uptake at 1 h ([4]; pancreas, read-out: Biodistribution Pancreas): 0.4 ± 0.3 %ID/g
- tissue uptake at 1 h ([4]; spleen, read-out: Biodistribution Spleen): 2.4 ± 1.1 %ID/g
- tissue uptake at 1 h ([4]; stomach, read-out: Biodistribution Stomach): 2 ± 0.7 %ID/g
- Biodistribution Tumor (tumor accumulation) [5]: 8.0 ± 2.2 %iD/g
SMILES: C[C@@H](NC(=O)[C@@H](CCCNC(=N)N)NC(=O)[C@@H](CN)NC(=O)c1ccc(NN)nc1)C(=O)Nc1ccc(C(=O)NCCC[C@@H]2C(=O)N[C@@H](CCCNC(=N)N)C(=O)N[C@@H](Cc3ccc4ccccc4c3)C(=O)NCC(=O)N[C@H](Cc3ccc(O)cc3)C(=O)N2C)cc1 [[^99mTc]Tc-HYNIC-L6-CPCR4, metal not drawn] (cyclo([dY][dNMeOrn]([4Abz-dA-dR-dDap-HYNIC])R[2Nal]G))
- internalization in % of total activity [3]: 77%
- Internalization (% of reference) [3]: 503 (90 min) % of reference
- internalization area under the curve (AUC) [3]: 2370

SMILES: C[C@@H](NC(=O)[C@@H](CCCNC(=N)N)NC(=O)[C@@H](CN)NC(=O)[C@@H](CO)NC(=O)[C@@H](CO)NC(=O)[C@@H](CO)NC(=O)CS)C(=O)Nc1ccc(C(=O)NCCC[C@@H]2C(=O)N[C@@H](CCCNC(=N)N)C(=O)N[C@@H](Cc3ccc4ccccc4c3)C(=O)NCC(=O)N[C@H](Cc3ccc(O)cc3)C(=O)N2C)cc1 [[^99mTc]Tc-mas3-L6-CPCR4, metal not drawn] (I: Mercaptoacetyl-[dS][dS][dS][dDap][dR][dA][4Abz] / II: cyclo([dY][dNMeOrn]R[2Nal]G); amide I:C-II:2)
- internalization in % of total activity [3]: 80%
- Internalization (% of reference) [3]: 525 (90 min) % of reference
- internalization area under the curve (AUC) [3]: 2430
- Biodistribution Tumor (tumor accumulation) [5]: 6.6 ± 1.0 %iD/g

SMILES: CN1C(=O)[C@@H](Cc2ccc(O)c(I)c2)NC(=O)CNC(=O)[C@H](Cc2ccc3ccccc3c2)NC(=O)[C@H](CCCNC(=N)N)NC(=O)[C@H]1CCCNC(=O)c1ccc(CNC(=O)CN2CCN(CC(=O)O)CCN(CC(=O)O)CCN(CC(=O)O)CC2)cc1 [^natLu-PentixaTher, metal not drawn] (cyclo([dTyr(3-I)][dNMeOrn]([4Amb-DOTA])R[2Nal]G); ring closure inferred)
- IC50 (mCXCR4): 567 ± 62 nM

SMILES: C[C@@H](NC(=O)[C@@H](CCCNC(=N)N)NC(=O)[C@@H](CN)NC(=O)[C@@H](CO)NC(=O)[C@@H](CO)NC(=O)[C@@H](CO)NC(=O)CS)C(=O)Nc1ccc(C(=O)NCCC[C@@H]2C(=O)N[C@@H](CCCNC(=N)N)C(=O)N[C@@H](Cc3ccc4ccccc4c3)C(=O)NCC(=O)N[C@H](Cc3ccc(O)cc3)C(=O)N2C)cc1 [mas3-L6-CPCR4, mas3-dap-r-a-Abz-CPCR4] (I: Mercaptoacetyl-[dS][dS][dS][dDap][dR][dA][4Abz] / II: cyclo([dY][dNMeOrn]R[2Nal]G); amide I:C-II:2)
- IC50 (human CXCR4 (hCXCR4)): 5 ± 1.3 nM
